Measurements as given in patent publication US9469650B2, “Melampomagnolide B derivatives” (BOARD OF TRUSTEES OF THE UNIVERSITY OF ARKANSAS, priority 2013, dated 2016).

What was measured:
[1] = tested on: UACC-62; experiment: panel of 60 human tumor cell lines, growth inhibition (Melanoma); details: UACC-62
[2] = tested on: HT29; experiment: panel of 60 human tumor cell lines, growth inhibition (Colon Cancer); details: HT29
[3] = tested on: U251; experiment: panel of 60 human tumor cell lines, growth inhibition (CNS Cancer); details: U251
[4] = tested on: TK-10; experiment: panel of 60 human tumor cell lines, growth inhibition (Renal Cancer); details: TK-10
[5] = tested on: NCI-H322M; experiment: panel of 60 human tumor cell lines, growth inhibition (Non-Small Cell Lung Cancer)
[6] = tested on: SNB-19; experiment: panel of 60 human tumor cell lines, growth inhibition (CNS Cancer); details: SNB-19
[7] = tested on: A549/ATCC; experiment: panel of 60 human tumor cell lines, growth inhibition (Non-Small Cell Lung Cancer); details: A549/ATCC
[8] = tested on: A498; experiment: panel of 60 human tumor cell lines, growth inhibition (Renal Cancer); details: A498
[9] = tested on: OVCAR-3; experiment: panel of 60 human tumor cell lines, growth inhibition (Ovarian Cancer); details: OVCAR-3
[10] = tested on: NCI-H23; experiment: panel of 60 human tumor cell lines, growth inhibition (Non-Small Cell Lung Cancer); details: NCI-H23
[11] = tested on: SNB-75; experiment: panel of 60 human tumor cell lines, growth inhibition (CNS Cancer); details: SNB-75
[12] = tested on: SK-MEL-28; experiment: panel of 60 human tumor cell lines, growth inhibition (Melanoma); details: SK-MEL-28
[13] = tested on: M14; experiment: as above; details: M14
[14] = tested on: PC-3; experiment: panel of 60 human tumor cell lines, growth inhibition (Prostate Cancer); details: PC-3
[15] = tested on: SF-295; experiment: panel of 60 human tumor cell lines, growth inhibition (CNS Cancer); details: SF-295
[16] = tested on: UACC-257; experiment: panel of 60 human tumor cell lines, growth inhibition (Melanoma); details: UACC-257
[17] = tested on: MDA-MB-468; experiment: panel of 60 human tumor cell lines, growth inhibition (Breast Cancer); details: MDA-MB-468
[18] = tested on: SR; experiment: panel of 60 human tumor cell lines, growth inhibition (Leukemia)

SMILES: C=C1C(=O)O[C@H]2[C@H]1CC/C(COC(=O)NCCO)=C\CC[C@@]1(C)O[C@@H]21 [JVM 2-50]
- Percent Growth ([1]; Log10 Concentration −4.0): −84%
- Percent Growth ([1]; Log10 Concentration −5.0): 62%
- Percent Growth ([1]; Log10 Concentration −6.0): 97%
- Percent Growth ([1]; Log10 Concentration −7.0): 93%
- Percent Growth ([1]; Log10 Concentration −8.0): 93%
- GI50 ([1]; NCI five dose): 12 µM
- TGI ([1]; NCI five dose): 2.65E−5
- Percent Growth ([2]; Log10 Concentration −4.0): −47%
- Percent Growth ([2]; Log10 Concentration −5.0): 57%
- Percent Growth ([2]; Log10 Concentration −6.0): 109%
- Percent Growth ([2]; Log10 Concentration −7.0): 104%
- Percent Growth ([2]; Log10 Concentration −8.0): 99%
- GI50 ([2]; NCI five dose): 11.7 µM
- TGI ([2]; NCI five dose): 3.55E−5
- Percent Growth ([3]; Log10 Concentration −4.0): −26%
- Percent Growth ([3]; Log10 Concentration −5.0): 94%
- Percent Growth ([3]; Log10 Concentration −6.0): 91%
- Percent Growth ([3]; Log10 Concentration −7.0): 95%
- Percent Growth ([3]; Log10 Concentration −8.0): 97%
- GI50 ([3]; NCI five dose): 23.3 µM
- TGI ([3]; NCI five dose): 6.08E−5
- Percent Growth ([4]; Log10 Concentration −4.0): −91%
- Percent Growth ([4]; Log10 Concentration −5.0): 55%
- Percent Growth ([4]; Log10 Concentration −6.0): 110%
- Percent Growth ([4]; Log10 Concentration −7.0): 103%
- Percent Growth ([4]; Log10 Concentration −8.0): 100%
- GI50 ([4]; NCI five dose): 10.8 µM
- Percent Growth ([5]; Log10 Concentration −4.0): 32%
- Percent Growth ([5]; Log10 Concentration −5.0): 109%
- Percent Growth ([5]; Log10 Concentration −6.0): 105%
- Percent Growth ([5]; Log10 Concentration −7.0): 109%
- Percent Growth ([5]; Log10 Concentration −8.0): 105%
- GI50 ([5]; NCI five dose): 58.8 µM
- TGI ([5]; NCI five dose): >1.00E−4
- Percent Growth ([6]; Log10 Concentration −4.0): 19%
- Percent Growth ([6]; Log10 Concentration −5.0): 84%
- Percent Growth ([6]; Log10 Concentration −6.0): 95%
- Percent Growth ([6]; Log10 Concentration −7.0): 93%
- Percent Growth ([6]; Log10 Concentration −8.0): 99%
- GI50 ([6]; NCI five dose): 32.6 µM
- TGI ([6]; NCI five dose): >1.00E−4
- Percent Growth ([7]; Log10 Concentration −4.0): 3%
- Percent Growth ([7]; Log10 Concentration −5.0): 93%
- Percent Growth ([7]; Log10 Concentration −6.0): 96%
- Percent Growth ([7]; Log10 Concentration −7.0): 92%
- Percent Growth ([7]; Log10 Concentration −8.0): 96%
- GI50 ([7]; NCI five dose): 30.2 µM
- TGI ([7]; NCI five dose): >1.00E−4
- Percent Growth ([8]; Log10 Concentration −4.0): −25%
- Percent Growth ([8]; Log10 Concentration −5.0): 58%
- Percent Growth ([8]; Log10 Concentration −6.0): 60%
- Percent Growth ([8]; Log10 Concentration −7.0): 68%
- Percent Growth ([8]; Log10 Concentration −8.0): 74%
- GI50 ([8]; NCI five dose): 12.4 µM
- TGI ([8]; NCI five dose): 5.01E−5
- Percent Growth ([9]; Log10 Concentration −4.0): −93%
- Percent Growth ([9]; Log10 Concentration −5.0): 40%
- Percent Growth ([9]; Log10 Concentration −6.0): 103%
- Percent Growth ([9]; Log10 Concentration −7.0): 106%
- Percent Growth ([9]; Log10 Concentration −8.0): 103%
- GI50 ([9]; NCI five dose): 6.27 µM
- TGI ([9]; NCI five dose): 1.99E−5
- Percent Growth ([10]; Log10 Concentration −4.0): −53%
- Percent Growth ([10]; Log10 Concentration −5.0): 67%
- Percent Growth ([10]; Log10 Concentration −6.0): 100%
- Percent Growth ([10]; Log10 Concentration −7.0): 102%
- Percent Growth ([10]; Log10 Concentration −8.0): 98%
- GI50 ([10]; NCI five dose): 13.8 µM
- TGI ([10]; NCI five dose): 3.61E−5
- Percent Growth ([11]; Log10 Concentration −4.0): −20%
- Percent Growth ([11]; Log10 Concentration −5.0): 68%
- Percent Growth ([11]; Log10 Concentration −6.0): 79%
- Percent Growth ([11]; Log10 Concentration −7.0): 79%
- Percent Growth ([11]; Log10 Concentration −8.0): 70%
- GI50 ([11]; NCI five dose): 16 µM
- TGI ([11]; NCI five dose): 5.92E−5
- Percent Growth ([12]; Log10 Concentration −4.0): −61%
- Percent Growth ([12]; Log10 Concentration −5.0): 48%
- Percent Growth ([12]; Log10 Concentration −6.0): 99%
- Percent Growth ([12]; Log10 Concentration −7.0): 104%
- Percent Growth ([12]; Log10 Concentration −8.0): 95%
- GI50 ([12]; NCI five dose): 9.33 µM
- TGI ([12]; NCI five dose): 2.77E−5
- Percent Growth ([13]; Log10 Concentration −4.0): −57%
- Percent Growth ([13]; Log10 Concentration −5.0): 56%
- Percent Growth ([13]; Log10 Concentration −6.0): 92%
- Percent Growth ([13]; Log10 Concentration −7.0): 97%
- Percent Growth ([13]; Log10 Concentration −8.0): 91%
- GI50 ([13]; NCI five dose): 11.2 µM
- TGI ([13]; NCI five dose): 3.11E−5
- Percent Growth ([14]; Log10 Concentration −4.0): −21%
- Percent Growth ([14]; Log10 Concentration −5.0): 94%
- Percent Growth ([14]; Log10 Concentration −6.0): 97%
- Percent Growth ([14]; Log10 Concentration −7.0): 93%
- Percent Growth ([14]; Log10 Concentration −8.0): 98%
- GI50 ([14]; NCI five dose): 24.1 µM
- TGI ([14]; NCI five dose): 6.57E−5
- Percent Growth ([15]; Log10 Concentration −4.0): 44%
- Percent Growth ([15]; Log10 Concentration −5.0): 92%
- Percent Growth ([15]; Log10 Concentration −6.0): 95%
- Percent Growth ([15]; Log10 Concentration −7.0): 90%
- Percent Growth ([15]; Log10 Concentration −8.0): 88%
- GI50 ([15]; NCI five dose): 73.7 µM
- TGI ([15]; NCI five dose): 1.06E−4
- Percent Growth ([16]; Log10 Concentration −4.0): −73%
- Percent Growth ([16]; Log10 Concentration −5.0): 44%
- Percent Growth ([16]; Log10 Concentration −6.0): 65%
- Percent Growth ([16]; Log10 Concentration −7.0): 90%
- Percent Growth ([16]; Log10 Concentration −8.0): 95%
- GI50 ([16]; NCI five dose): 7 µM
- TGI ([16]; NCI five dose): 2.37E−5
- Percent Growth ([17]; Log10 Concentration −4.0): −67%
- Percent Growth ([17]; Log10 Concentration −5.0): −12%
- Percent Growth ([17]; Log10 Concentration −6.0): 67%
- Percent Growth ([17]; Log10 Concentration −7.0): 91%
- Percent Growth ([17]; Log10 Concentration −8.0): 98%
- GI50 ([17]; NCI five dose): 1.64 µM
- TGI ([17]; NCI five dose): 7.01E−6
- Percent Growth ([18]; Log10 Concentration −4.0): −30%
- Percent Growth ([18]; Log10 Concentration −5.0): 18%
- Percent Growth ([18]; Log10 Concentration −6.0): 91%
- Percent Growth ([18]; Log10 Concentration −7.0): 100%
- Percent Growth ([18]; Log10 Concentration −8.0): 100%
- GI50 ([18]; NCI five dose): 3.67 µM
